Laboratory results reported in paper PMC9858427, “Design, synthesis and biological evaluation of 2-((4-sulfamoylphenyl)amino)-pyrrolo[2,3-d]pyrimidine derivatives as CDK inhibitors” (Journal of Enzyme Inhibition and Medicinal Chemistry, 2023).
Read-outs that look alike come from different tables or passages of the source.

How the values were obtained:
[1] = target: CDK9/cyclinT1 (Homo sapiens, UniProt P50750); test: CDK9/cyclinT1 Lance Ultra Assay, single concentration screen; format: biochemical; details: ATP concentration at Km; for inhibition at 0.05 µM: 50 nM, read-out: CDK9 inhibitory rate (%) @ 50nM; for CDK9 inhibitory rate (%) @ 50nM: 0.05 µM
Method: (§1) CDK kinase activity (IC50 values and inhibitory rate at single concentration) was measured using the kinase profiling services (Shanghai ChemPartner Co., Ltd). Compounds were sent to ChemPartner as a solution in DMSO at concentration of 10 mM.

[2] = test system: MIA PaCa-2 cells; test: MTT proliferation assay in MIA PaCa-2 cells; format: cell-based, human; details: 72 h drug exposure
Method: (§2) The human pancreatic carcinoma MIA PaCa-2 was purchased from China Centre for Type Culture Collection, AsPC-1 and BxPC-3 cell Lines were purchased from Cell Centre of the Institute of Basic Medical Sciences, Chinese Academy of Medical Sciences and Peking Union Medical College. PANC-1 was kindly provided by Nankai Hospital (Tianjin, China). These cancer cell lines were cultured according to the manufacturer’s instruction.
(§3) Then 3-fold diluted concentrations of tested compound were added respectively which was dissolved by DMSO in the ratio of 1:1000. After indicated incubation period, MTT was added to each well and incubated for 4 h at 37 °C. Then, the supernatant was discarded gently, and the precipitate was dissolved in 100 µL of DMSO in each well. The absorbance (A) at 570 nm was detected with a microplate reader (Multiskan MK3; Thermo Fisher Scientific, MA, USA). Vehicle-treated cells were served as the control for the calculation of relative cell viability (%) of treated group at single concentration. IC50 value was calculated directly from the inhibition curve of serial dilution of test compound and was expressed as mean ± SD using the SPSS statistical software (SPSS17.0 Inc., Chicago, IL, USA).

[3] = target: CDK7 (Homo sapiens, UniProt P50613); test: CDK7 kinase IC50, Mobility shift assay; format: biochemical
Method: as §1

[4] = target: CDK9 (Homo sapiens, UniProt P50750); test: CDK9 kinase IC50, Mobility shift assay; format: biochemical
Method: as §1

[5] = target: CDK4 (Homo sapiens, UniProt P11802); test: CDK4 kinase IC50, Mobility shift assay; format: biochemical
Method: as §1

[6] = target: CDK2 (Homo sapiens, UniProt P24941); test: CDK2 kinase IC50, Mobility shift assay; format: biochemical
Method: as §1

[7] = target: CDK1 (Homo sapiens, UniProt P06493); test: CDK1 kinase IC50, Mobility shift assay; format: biochemical
Method: as §1

[8] = Solubility / precipitation observations; format: physicochemical
[9] = test system: AsPC-1; test: MTT proliferation assay in AsPC-1 cells; format: cell-based; details: Homo sapiens, ASPC1; 72 h drug exposure
Method: as §2
as §3, with “Cells were planted in 96-well plates at a density of 3000–4000 cells per well and incubated at 37 °C in a humidified CO2 incubator for 24 h. Then 3-fold” for “Then 3-fold”

[10] = Oral PK study in rats; format: in vivo; details: male, SD, rat, plasma, 30 mg/kg
Method: Synthetic compound was administered as a suspension or solution in the saline with 5% DMSO and 5% Solutol. GCTB was dissolved in saline. All of the experiments were approved by the Institutional Animal Care and Use Committee of Institute of Medicinal Biotechnology. All experiments were carried out under ethics committee–approved protocols and in compliance with the guidelines for the care of laboratory animals of Institute of Medicinal Biotechnology, CAMS.
SD rats were purchased from Beijing Vital River Laboratory Animal Technology Co., Ltd and randomly divided into three groups (n = 3, male). The animals were housed under standard conditions and fastened for 12 h before the treatment. They had free access to water and consumed a standard laboratory diet from 4 h after administration. Blood was taken from the orbital venous plexus at 0, 0.083, 0.25, 0.5, 1, 2, 4, 6, 8, and 24 h after intragastric administration of the test compound (30 mg/kg). The blood samples were collected into heparin anticoagulated EP tubes and centrifuged at 8000 r/min for 5 min at 2−8 °C; the plasma was separated and stored at −70 °C for use. Plasma was centrifuged at 4000 rpm for 10 min at 2−8 °C and stored at −70 °C until analysis. Plasma samples were analysed by LC-MS/MS (AB Sciex API4000 QTRAP) equipped with an ESI ion resource and Analyst 1.5.1 software. The noncompartmental model analysis was used for calculating pharmacokinetic parameters with the WinNolin professional v6.3 program (Pharsight, USA).

[11] = test system: BxPC-3; test: MTT proliferation assay in BxPC-3 cells; format: cell-based; details: Homo sapiens, 72 h drug exposure
Method: as §2
as §3, with “Cells were planted in 96-well plates at a density of 3000–4000 cells per well and incubated at 37 °C in a humidified CO2 incubator for 24 h. Then 3-fold” for “Then 3-fold”

[12] = test system: PANC-1; test: MTT proliferation assay in PANC-1 cells; format: cell-based; details: Homo sapiens, 72 h drug exposure
Method: as §2
as §3, with “Cells were planted in 96-well plates at a density of 3000–4000 cells per well and incubated at 37 °C in a humidified CO2 incubator for 24 h. Then 3-fold” for “Then 3-fold”

CDK7, sequence (P50613 whole entry): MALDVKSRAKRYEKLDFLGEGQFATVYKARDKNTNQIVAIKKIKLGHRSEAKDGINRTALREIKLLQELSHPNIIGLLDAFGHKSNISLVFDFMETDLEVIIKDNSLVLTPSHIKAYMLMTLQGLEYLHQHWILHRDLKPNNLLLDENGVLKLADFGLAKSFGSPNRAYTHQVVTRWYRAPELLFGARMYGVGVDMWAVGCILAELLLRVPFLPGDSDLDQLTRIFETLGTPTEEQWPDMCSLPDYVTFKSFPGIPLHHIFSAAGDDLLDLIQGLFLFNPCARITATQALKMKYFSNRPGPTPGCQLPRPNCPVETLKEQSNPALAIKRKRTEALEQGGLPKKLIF
CDK7, sequence (P51946 whole entry partner): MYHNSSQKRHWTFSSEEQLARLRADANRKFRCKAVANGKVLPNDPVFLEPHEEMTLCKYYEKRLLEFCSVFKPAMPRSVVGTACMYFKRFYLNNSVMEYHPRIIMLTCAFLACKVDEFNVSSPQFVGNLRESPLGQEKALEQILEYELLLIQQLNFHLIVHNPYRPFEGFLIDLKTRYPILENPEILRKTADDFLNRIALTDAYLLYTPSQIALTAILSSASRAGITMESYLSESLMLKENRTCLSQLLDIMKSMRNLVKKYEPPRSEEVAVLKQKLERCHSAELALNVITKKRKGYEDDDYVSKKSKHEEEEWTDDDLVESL
CDK7, sequence (P51948 whole entry partner): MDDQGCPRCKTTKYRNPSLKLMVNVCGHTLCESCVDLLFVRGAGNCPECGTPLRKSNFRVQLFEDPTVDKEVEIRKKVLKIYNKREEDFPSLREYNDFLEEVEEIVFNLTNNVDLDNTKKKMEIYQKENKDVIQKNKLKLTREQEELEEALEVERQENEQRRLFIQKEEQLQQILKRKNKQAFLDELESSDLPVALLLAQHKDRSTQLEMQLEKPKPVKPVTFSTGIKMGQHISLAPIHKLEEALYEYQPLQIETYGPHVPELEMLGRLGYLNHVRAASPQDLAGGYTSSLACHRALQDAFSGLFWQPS
CDK9, sequence (P50750 whole entry): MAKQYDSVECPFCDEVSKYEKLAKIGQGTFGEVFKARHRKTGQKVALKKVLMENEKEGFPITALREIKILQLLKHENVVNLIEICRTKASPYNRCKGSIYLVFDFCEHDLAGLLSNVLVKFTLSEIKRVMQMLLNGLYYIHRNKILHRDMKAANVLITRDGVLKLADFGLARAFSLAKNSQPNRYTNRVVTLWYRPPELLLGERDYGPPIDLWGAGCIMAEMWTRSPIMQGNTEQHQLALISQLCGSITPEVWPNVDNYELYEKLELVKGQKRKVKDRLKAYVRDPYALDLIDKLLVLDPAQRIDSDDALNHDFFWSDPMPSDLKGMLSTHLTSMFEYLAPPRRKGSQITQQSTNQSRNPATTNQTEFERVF
CDK9, sequence (O60563 whole entry partner): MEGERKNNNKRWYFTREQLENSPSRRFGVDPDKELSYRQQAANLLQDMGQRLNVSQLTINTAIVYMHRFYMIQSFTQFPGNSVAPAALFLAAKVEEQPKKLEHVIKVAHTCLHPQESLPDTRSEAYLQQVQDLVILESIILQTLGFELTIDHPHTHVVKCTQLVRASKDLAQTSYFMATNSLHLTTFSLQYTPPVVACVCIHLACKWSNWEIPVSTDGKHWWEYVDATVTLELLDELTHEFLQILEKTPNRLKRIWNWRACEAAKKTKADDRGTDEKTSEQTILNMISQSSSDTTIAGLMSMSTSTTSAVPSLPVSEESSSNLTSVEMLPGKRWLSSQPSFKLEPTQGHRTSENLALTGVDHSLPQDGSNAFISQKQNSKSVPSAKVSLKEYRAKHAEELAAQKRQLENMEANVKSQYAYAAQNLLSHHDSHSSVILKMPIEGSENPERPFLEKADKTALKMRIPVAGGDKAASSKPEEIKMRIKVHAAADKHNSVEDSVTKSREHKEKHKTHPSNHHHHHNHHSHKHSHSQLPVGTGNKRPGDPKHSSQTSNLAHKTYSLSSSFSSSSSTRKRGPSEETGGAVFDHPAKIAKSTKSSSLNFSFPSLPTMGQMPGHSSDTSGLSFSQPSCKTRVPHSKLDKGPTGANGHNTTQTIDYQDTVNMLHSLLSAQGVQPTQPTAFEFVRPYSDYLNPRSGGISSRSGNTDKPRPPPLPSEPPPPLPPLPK
CDK9/cyclinT1, sequence (P50750 whole entry): as the sequence (P50750 whole entry) above
CDK9/cyclinT1, sequence (O60563 whole entry partner): as the sequence (O60563 whole entry partner) above
CDK1, sequence (P06493 whole entry): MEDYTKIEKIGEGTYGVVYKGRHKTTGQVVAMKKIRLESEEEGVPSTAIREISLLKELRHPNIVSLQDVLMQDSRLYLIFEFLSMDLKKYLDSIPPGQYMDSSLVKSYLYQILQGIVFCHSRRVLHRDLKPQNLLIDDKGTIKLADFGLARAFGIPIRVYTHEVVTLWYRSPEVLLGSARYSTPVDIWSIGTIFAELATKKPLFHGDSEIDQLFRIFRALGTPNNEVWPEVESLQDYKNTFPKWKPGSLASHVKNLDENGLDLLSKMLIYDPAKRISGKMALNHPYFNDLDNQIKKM
CDK1, sequence (P14635 whole entry partner): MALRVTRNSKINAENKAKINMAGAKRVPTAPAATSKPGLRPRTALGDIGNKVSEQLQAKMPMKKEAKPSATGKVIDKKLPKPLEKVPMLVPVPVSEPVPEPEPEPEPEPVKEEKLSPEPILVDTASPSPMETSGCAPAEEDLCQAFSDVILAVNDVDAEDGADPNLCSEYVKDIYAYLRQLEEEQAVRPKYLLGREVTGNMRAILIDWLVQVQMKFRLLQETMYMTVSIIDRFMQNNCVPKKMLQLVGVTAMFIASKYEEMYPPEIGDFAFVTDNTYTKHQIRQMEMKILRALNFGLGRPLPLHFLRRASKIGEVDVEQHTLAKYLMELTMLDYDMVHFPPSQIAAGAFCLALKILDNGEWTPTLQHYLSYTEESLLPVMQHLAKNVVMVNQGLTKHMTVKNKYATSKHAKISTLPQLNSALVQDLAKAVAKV
CDK4, sequence (P11802 whole entry): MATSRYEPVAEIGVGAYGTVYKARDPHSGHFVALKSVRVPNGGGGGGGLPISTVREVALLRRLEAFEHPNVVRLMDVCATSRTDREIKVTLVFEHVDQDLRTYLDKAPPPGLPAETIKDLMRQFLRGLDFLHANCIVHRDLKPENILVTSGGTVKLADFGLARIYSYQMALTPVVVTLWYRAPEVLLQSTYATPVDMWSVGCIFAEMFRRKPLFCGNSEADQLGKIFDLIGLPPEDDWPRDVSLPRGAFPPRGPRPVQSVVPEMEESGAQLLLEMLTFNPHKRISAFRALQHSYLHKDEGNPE
CDK4, sequence (P30281 whole entry partner): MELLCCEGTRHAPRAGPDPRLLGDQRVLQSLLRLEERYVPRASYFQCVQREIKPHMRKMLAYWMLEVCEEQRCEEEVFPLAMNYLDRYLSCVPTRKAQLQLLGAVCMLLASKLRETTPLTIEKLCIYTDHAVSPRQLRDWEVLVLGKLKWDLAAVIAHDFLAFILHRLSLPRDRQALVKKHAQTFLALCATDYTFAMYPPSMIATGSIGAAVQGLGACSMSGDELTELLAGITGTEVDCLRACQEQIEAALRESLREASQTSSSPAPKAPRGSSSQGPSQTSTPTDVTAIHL

Compound | inhibition at 0.05 µM [1] [%] | IC50 ([2]; Homo sapiens, MIA PaCa-2, 72 h) [µM] | IC50 [3] [nM] | IC50 [4] [nM] | IC50 [5] [nM] | IC50 [6] [nM] | other results
CN(C)C(=O)c1cc2cnc(Nc3ccc(S(=O)(=O)N(C)C)cn3)nc2n1C1CCCC1 [2j] | 25 | 69.1 ± 15.5 | – | – | – | – | CDK9 inhibitory rate (%) @ 50nM [1]: 25.8%
CN(C)C(=O)c1cc2cnc(Nc3ccc(N4CCNCC4)cn3)nc2n1C1CCCC1 [Ribociclib, reference compound] | 16.9 | 16.5 ± 7 | – | – | – | – | –
CN(C)C(=O)c1cc2cnc(Nc3ccc(S(=O)(=O)N(C)C)cc3)nc2n1C1CCCC1 [2e, 7-Cyclopentyl-2-((4-(N,N-dimethylsulfamoyl)phenyl)amino)-N,N-dimethyl-7H-pyrrolo[2,3-d]pyrimidine-6-carboxamide] | 89.3 | 10.5 ± 0.74 | – | – | – | – | –
COc1ccccc1NC(=O)c1cc2cnc(Nc3ccc(S(=O)(=O)Nc4nc(C)cc(C)n4)cc3)nc2n1C1CCCC1 [10a, 7-Cyclopentyl-2-((4-(N-(4,6-dimethylpyrimidin-2-yl)sulfamoyl)phenyl)amino)-N-(2-methoxyphenyl)-7H-pyrrolo[2,3-d]pyrimidine-6-carboxamide] | -3.1 | 40.8 ± 3.26 | – | – | – | – | –
CN(C)C(=O)c1cc2cnc(Nc3ccc(S(=O)(=O)Nc4ccc(Cl)cc4)cc3)nc2n1C1CCCC1 [2d, 2-((4-(N-(4-chlorophenyl)sulfamoyl)phenyl)amino)-7-cyclopentyl-N,N-dimethyl-7H-pyrrolo[2,3-d]pyrimidine-6-carboxamide] | 91.8 | 6.23 ± 1.25 | > 10000 | 7.7 | 148 | 7980 | –
CN(C)C(=O)c1cc2cnc(Nc3ccc(S(=O)(=O)N4CCOCC4)cc3)nc2n1C1CCCC1 [5e, 7-Cyclopentyl-N,N-dimethyl-2-((4-(morpholinosulfonyl)phenyl)amino)-7H-pyrrolo[2,3-d]pyrimidine-6-carboxamide] | 81.8 | 4.35 ± 1.61 | > 10000 | 13 | 52 | 236 | IC50 [7]: 439 nM
COc1ccccc1NC(=O)c1cc2cnc(Nc3ccc(S(=O)(=O)Nc4ncccn4)cc3)nc2n1C1CCCC1 [10b, 7-Cyclopentyl-N-(2-methoxyphenyl)-2-((4-(N-(pyrimidin-2-yl)sulfamoyl)phenyl)amino)-7H-pyrrolo[2,3-d]pyrimidine-6-carboxamide] | 54 | 80.8 ± 16 | – | – | – | – | CDK9 inhibitory rate (%) @ 50nM [1]: 54.4%
CN1CCN(S(=O)(=O)c2ccc(Nc3ncc4cc(C(=O)N(C)C)n(C5CCCC5)c4n3)cc2)CC1 [5c, 7-Cyclopentyl-N,N-dimethyl-2-((4-((4-methylpiperazin-1-yl)sulphonyl)phenyl)amino)-7H-pyrrolo[2,3-d]pyrimidine-6-carboxamide] | 99.1 | 7.8 ± 1.04 | > 10000 | 6.3 | 35 | 227 | IC50 [7]: 550 nM
CN(C)C(=O)c1cc2cnc(Nc3ccc(S(C)(=O)=O)cc3)nc2n1C1CCCC1 [2f, 7-Cyclopentyl-N,N-dimethyl-2-((4-(methylsulfonyl)phenyl)amino)-7H-pyrrolo[2,3-d]pyrimidine-6-carboxamide] | 96.5 | 18.9 ± 2.12 | – | – | – | – | –
CN(C)C(=O)c1cc2cnc(Nc3ccc(S(=O)(=O)Nc4ccccn4)cc3)nc2n1C1CCCC1 [2c] | 99.1 | 18.8 ± 5.54 | – | – | – | – | solubility (in words) [8]: poor solubility
CC1CCN(S(=O)(=O)c2ccc(Nc3ncc4cc(C(=O)N(C)C)n(C5CCCC5)c4n3)cc2)CC1 [5d, 7-Cyclopentyl-N,N-dimethyl-2-((4-((4-methylpiperidin-1-yl)sulphonyl)phenyl)amino)-7H-pyrrolo[2,3-d]pyrimidine-6-carboxamide] | 80.6 | 2.85 ± 0.52 | > 10000 | 20 | 170 | 2340 | IC50 [7]: 906 nM
CN(C)C(=O)c1cc2cnc(Nc3ccc(S(=O)(=O)N4CCNCC4)cc3)nc2n1C1CCCC1.O=C(O)C(F)(F)F [compound 5b, 7-Cyclopentyl-N,N-dimethyl-2-((4-(piperazin-1-ylsulfonyl)phenyl)amino)-7H-pyrrolo[2,3-d]pyrimidine-6-carboxamide trifluoroacetate] | 98.2 | 0.94 ± 0.25 | 4970 | 3.2 | 20 | 147 | IC50 [7]: 333 nM; IC50 [9]: 1.48 ± 0.09 µM; Cmax ([10]; single oral administration, read-out: maximum plasma drug concentration (Cmax)): 1080 ng/mL; AUC ([10]; single oral administration, read-out: systematic exposure (AUC0‑t)): 4430 ng·h/mL; AUC(0-inf) ([10]; oral, n = 3): 4780 ± 2160 ng·h/mL; AUC(0-t) ([10]; oral, n = 3): 4430 ± 1620 ng·h/mL; MRT ([10]; oral, n = 3): 3.62 ± 0.83 h; Tmax ([10]; oral, n = 3): 1.17 h; half-life ([10]; oral, n = 3): 2.2 ± 0.9 h; Cmax ([10]; oral, n = 3, read-out: Cmax): 2000 nM; IC50 [11]: 0.249 ± 0.099 µM; IC50 [12]: 5.81 ± 1.38 µM
CN(C)C(=O)c1cc2cnc(Nc3ccc(S(N)(=O)=O)cn3)nc2n1C1CCCC1 [compound 2i, 7-Cyclopentyl-N,N-dimethyl-2-((5-sulfamoylpyridin-2-yl)amino)-7H-pyrrolo[2,3-d]pyrimidine-6-carboxamide] | 27 | > 100 | – | – | – | – | CDK9 inhibitory rate (%) @ 50nM [1]: 27.4%
CN(C)C(=O)c1cc2cnc(Nc3ccccc3)nc2n1C1CCCC1 [compound 2h] | 93.2 | 45.1 ± 16.6 | – | – | – | – | –
Cc1ccnc(NS(=O)(=O)c2ccc(Nc3ncc4cc(C(=O)N(C)C)n(C5CCCC5)c4n3)cc2)n1 [2a, 7-cyclopentyl-N,N-dimethyl-2-((4-(N-(4-methylpyrimidin-2-yl)sulfamoyl)phenyl)amino)-7H-pyrrolo[2,3-d]pyrimidine-6-carboxamide] | 100 | > 10 | – | – | – | – | IC50 [2]: 13 ± 0.37 µM
